For eleven compounds, DC50 and GI50 results are on record in patent US11312702B2, “Substituted quinoline-8-carbonitrile derivatives having androgen receptor degradation activity and uses thereof” (ACCUTAR BIOTECHNOLOGY INC., priority 2019, dated 2022).

Where only a bound is given, the exact number is not on record here.

Holding throughout (assay type): cell-based
The target of one experiment is T1, androgen receptor (AR) (Homo sapiens, UniProt P10275, T878A).
T1 construct: endogenous in cells; host or cells: LNCAP
T1 sequence (P10275 1-920 T878A): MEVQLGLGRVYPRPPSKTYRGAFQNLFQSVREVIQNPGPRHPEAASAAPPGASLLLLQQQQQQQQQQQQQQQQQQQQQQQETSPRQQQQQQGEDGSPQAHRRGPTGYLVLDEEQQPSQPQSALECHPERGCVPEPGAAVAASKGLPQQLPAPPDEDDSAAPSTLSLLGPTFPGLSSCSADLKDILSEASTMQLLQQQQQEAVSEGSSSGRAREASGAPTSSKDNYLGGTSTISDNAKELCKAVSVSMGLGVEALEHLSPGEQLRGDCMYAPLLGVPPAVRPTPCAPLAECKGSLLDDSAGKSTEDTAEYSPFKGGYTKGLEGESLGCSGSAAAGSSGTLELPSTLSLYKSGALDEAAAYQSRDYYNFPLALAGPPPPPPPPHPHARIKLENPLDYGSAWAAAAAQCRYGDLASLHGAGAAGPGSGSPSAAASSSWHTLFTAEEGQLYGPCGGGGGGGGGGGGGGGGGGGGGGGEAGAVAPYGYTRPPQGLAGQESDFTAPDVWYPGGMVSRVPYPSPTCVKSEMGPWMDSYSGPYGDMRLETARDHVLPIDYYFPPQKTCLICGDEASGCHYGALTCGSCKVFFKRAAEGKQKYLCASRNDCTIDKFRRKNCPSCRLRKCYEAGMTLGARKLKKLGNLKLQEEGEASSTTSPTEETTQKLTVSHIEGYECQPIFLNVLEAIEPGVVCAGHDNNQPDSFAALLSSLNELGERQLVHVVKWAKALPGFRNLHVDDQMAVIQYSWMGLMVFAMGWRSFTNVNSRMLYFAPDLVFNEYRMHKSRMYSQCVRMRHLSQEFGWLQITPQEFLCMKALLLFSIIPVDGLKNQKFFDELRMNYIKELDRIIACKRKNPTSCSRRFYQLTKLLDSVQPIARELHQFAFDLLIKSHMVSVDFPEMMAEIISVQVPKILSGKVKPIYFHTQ
Nature of the experiment: AR degradation activity in LNCAP cells (Western blot). To be noted: LNCAP cell line, 24 hours after administration; DC50 = concentration for 50% target protein degradation. How it is done:
LNCAP, VCAP and 22Rv1 cells were plated in 24-well plates at 1.5×10E5 cells/well in the RPMI growth medium containing 10% FBS and 1% Penicillin Streptomycin, and then incubated at 37° C. overnight. The following day, the test compound was administered to the cells by using 1000× compound stock solution prepared in DMSO at various concentrations. After administration of the compound, the cells were then incubated at 37° C. for 24 hours. Upon completion, the cells were washed with PBS and protein was collected in Laemmli sample buffer (1×; VWR International). Proteins in cell lysate were separated by SDS-PAGE and transferred to Odyssey nitrocellulose membranes (Licor) with iblot® dry blotting transfer system (ThermoFisher). Nonspecific binding was blocked by incubating membranes with Intercept Blocking Buffer (Licor) for 1 hour at room temperature with gentle shaking. The membranes were then incubated overnight at 4° C. with Primary antibodies rabbit anti-AR (1:1,000, Cell Signaling, 5153) and mouse anti-GAPDH (1:5,000, Santa Cruz Biotechnology, sc-47724) diluted in Intercept Blocking Buffer containing 0.1% Tween 20. After washing 3 times with TBS-T, the membranes were incubated with IRDye® […] goat anti-mouse IgG (1:20,000, Licor) or IRDye®8000W goat anti-rabbit IgG (1:20,000, Licor) for 1 hour. After TBS-T washes, membranes were rinsed in TBS and scanned on Odyssey® CLx Imaging System (Licor). The bands were quantified using Image Studio™ Software (Licor).
(§1) Table 4 summarizes the androgen receptor (AR) degradative activity and cell growth inhibition of exemplary compounds in (a) LNCAP, VCAP, and 22Rv1 cell lines 24 hours after administration of the compound; (b) RAMOS cell line 3 days after administration of the compound; and (c) VCAP cell line 6 days after administration of the compound. DC50: compound concentration needed for 50% target protein degradation.
In general terms: Immunoblotting shows a protein as a band on a membrane.

A further experiment deals with RAMOS cells. The experiment is described as follows: Cell growth inhibition for Ramos cells (CellTiter-Glo). To be noted: Homo sapiens, 72 h; RAMOS cell line, 3 days after administration. As to the method: RAMOS cells (ATCC) were seeded in 96-well plates at 16,000 cell/well in 90 μl of RPMI growth medium containing 10% Heat-Inactivated Fetal Bovine Serum and 1% Penicillin/Streptomycin. The test compound was administered to the cells by using 10× compound stock solution prepared in growth medium at various concentrations. After administration of the compound, cells were then incubated at 37° C. for 3 days. Before CellTiter-Glo assay, the plates were equilibrated at room temperature for approximately 10 minutes. 100 ul of CellTiter-Glo® Reagent (Promega) was added to each well. The plates were then incubated at room temperature for 10 minutes and luminescence was recorded by EnSpire plate reader (PerkinElmer).
as §1
Background: ATP-based viability assays read luminescence as a measure of living cells.

For a further experiment, the system named is VCAP cells. Nature of the experiment: Cell growth inhibition for VCAP cells (CellTiter-Glo). The note with it: Homo sapiens, 144 h; VCAP cell line, 6 days after administration, 0.1 nM R1881, charcoal-stripped FBS. As to the method:
VCAP cells (ATCC) were seeded in 96-well plates at 3000 cell/well in 80 μl of DMEM growth medium containing 10% charcoal-stripped FBS (CSS) and 1% Penicillin/Streptomycin. Cells were incubated at 37° C. overnight. The following day, the test compound was administered to the cells by using 10× compound stock solution prepared in growth medium at various concentrations. Four hours later, 0.1 nM R1881 (Sigma) was administered to the cells by using 10× compound stock solution prepared in growth medium. 0.1% DMSO with or without 0.1 nM R1881 was administered as control. Cells were then incubated at 37° C. for 6 days. Before CelTiter-Glo assay, the plates were equilibrated at room temperature for approximately 10 minutes. 100 ul of CellTiter-Glo® Reagent (Promega) was added to each well. The plates were then incubated at room temperature for 10 minutes and luminescence was recorded by EnSpire plate reader (PerkinElmer).
as §1

The DC50 is the concentration giving 50% degradation. `CN(CC1CCN(c2ccc(C(=O)NC3C(C)(C)C(Oc4ccc(C#N)c5ncccc45)C3(C)C)cn2)CC1)C1CC(Oc2ccc3c(c2)C(=O)N(C2CCC(=O)NC2=O)C3=O)C1` (stereo not drawn) [Compound 2-9, N-((1,3-trans)-3-((8-cyanoquinolin-5-yl)oxy)-2,2,4,4-tetramethylcyclobutyl)-6-(4-((((1r,3r)-3-((2-(2,6-dioxopiperidin-3-yl)-1,3-dioxoisoindolin-5-yl)oxy)cyclobutyl)(methyl)amino)methyl)piperidin-1-yl)nicotinamide] gave a DC50 on androgen receptor (AR) of 0.2 nM.
As for `CC(C)N(CC1CCN(c2ccc(C(=O)NC3C(C)(C)C(Oc4ccc(C#N)c5ncccc45)C3(C)C)cn2)CC1)C1CC(Oc2ccc3c(c2)C(=O)N(C2CCC(=O)NC2=O)C3=O)C1` (stereo not drawn) [Compound 2-11, N-((1,3-trans)-3-((8-cyanoquinolin-5-yl)oxy)-2,2,4,4-tetramethylcyclobutyl)-6-(4-((((1r,3r)-3-((2-(2,6-dioxopiperidin-3-yl)-1,3-dioxoisoindolin-5-yl)oxy)cyclobutyl)(isopropyl)amino)methyl)piperidin-1-yl)nicotinamide], the DC50 at androgen receptor (AR) is 2.8 nM.
What is called GI50 is the concentration giving 50% growth inhibition. A higher GI50 goes with lower sensitivity of the cells. Regarding `CC1(C)[C@H](NC(=O)c2cnc(N3CCC(CN4CCN(c5ccc6c(c5)CN([C@H]5CCC(=O)NC5=O)C6=O)CC4)CC3)nc2)C(C)(C)[C@H]1Oc1ccc(C#N)c2ncccc12` [Compound 2-30], the values for the GI50 with RAMOS cells and in the experiment on VCAP cells were more than 3000 nM and 11.5 nM, respectively. Besides, half-maximal degradation on androgen receptor (AR) (DC50) was put at 0.2 nM.
In the case of `CC1(C)C(NC(=O)c2ccc(N3CCC(CN4CCN(c5ccc6c(c5)CN([C@H]5CCC(=O)NC5=O)C6=O)CC4)CC3)nn2)C(C)(C)C1Oc1ccc(C#N)c2ncccc12` (stereo partly drawn) [Compound 2-31, N-((1,3-trans)-3-((8-cyanoquinolin-5-yl)oxy)-2,2,4,4-tetramethylcyclobutyl)-6-(4-((4-(2-((S)-2,6-dioxopiperidin-3-yl)-1-oxoisoindolin-5-yl)piperazin-1-yl)methyl)piperidin-1-yl)pyridazine-3-carboxamide], the GI50 is more than 3000 nM with RAMOS cells and 9.2 nM in the experiment on VCAP cells. Besides, at androgen receptor (AR), the DC50 came to 0.6 nM.
As for `CC1(C)C(NC(=O)c2ccc(N3CCC(CN4CCN(c5cc6c(cc5F)C(=O)N(C5CCC(=O)NC5=O)C6=O)CC4)CC3)nn2)C(C)(C)C1Oc1ccc(C#N)c2ncccc12` (stereo not drawn) [Compound 2-35, N-((1,3-trans)-3-((8-cyanoquinolin-5-yl)oxy)-2,2,4,4-tetramethylcyclobutyl)-6-(4-((4-(2-(2,6-dioxopiperidin-3-yl)-6-fluoro-1,3-dioxoisoindolin-5-yl)piperazin-1-yl)methyl)piperidin-1-yl)pyridazine-3-carboxamide], half-maximal degradation on androgen receptor (AR) (DC50) was put at 0.4 nM.
Turning to `CC1(C)C(NC(=O)c2ccc(N3CCC(CN4CCN(c5cc6c(cc5F)C(=O)N(C5CCC(=O)NC5=O)C6=O)CC4)CC3)nc2)C(C)(C)C1Oc1ccc(C#N)c2ncccc12` (stereo not drawn) [Compound 2-36, N-((1,3-trans)-3-((8-cyanoquinolin-5-yl)oxy)-2,2,4,4-tetramethylcyclobutyl)-6-(4-((4-(2-(2,6-dioxopiperidin-3-yl)-6-fluoro-1,3-dioxoisoindolin-5-yl)piperazin-1-yl)methyl)piperidin-1-yl)nicotinamide], half-maximal degradation on androgen receptor (AR) (DC50) was put at 1.4 nM.
Compound `CC1(C)C(NC(=O)c2ccc(N3CCC(CN4CCN(c5cc6c(cc5F)C(=O)N(C5CCC(=O)NC5=O)C6=O)CC4)CC3)cc2)C(C)(C)C1Oc1ccc(C#N)c2ncccc12` (stereo not drawn) [Compound 2-47, N-((1,3-trans)-3-((8-cyanoquinolin-5-yl)oxy)-2,2,4,4-tetramethylcyclobutyl)-4-(4-((4-(2-(2,6-dioxopiperidin-3-yl)-6-fluoro-1,3-dioxoisoindolin-5-yl)piperazin-1-yl)methyl)piperidin-1-yl)benzamide] returned a DC50 on androgen receptor (AR) of 0.8 nM.
On androgen receptor (AR), `CC1(C)C(NC(=O)c2ccc(N3CCC(CN4CCN(c5cc6c(cc5F)C(=O)N(C5CCC(=O)NC5=O)C6=O)CC4)CC3)c(F)c2)C(C)(C)C1Oc1ccc(C#N)c2ncccc12` (stereo not drawn) [Compound 2-48, N-((1,3-trans))-3-((8-cyanoquinolin-5-yl)oxy)-2,2,4,4-tetramethylcyclobutyl)-4-(4-((4-(2-(2,6-dioxopiperidin-3-yl)-6-fluoro-1,3-dioxoisoindolin-5-yl)piperazin-1-yl)methyl)piperidin-1-yl)-3-fluorobenzamide] registered a DC50 of 3.8 nM.
`CC1(C)C(NC(=O)c2cnc(N3CCC(CN4CCN(c5cc6c(cc5F)C(=O)N(C5CCC(=O)NC5=O)C6=O)CC4)CC3)nc2)C(C)(C)C1Oc1ccc(C#N)c2ncccc12` (stereo not drawn) [Compound 2-50, N-((1,3-trans)-3-((8-cyanoquinolin-5-yl)oxy)-2,2,4,4-tetramethylcyclobutyl)-2-(4-((4-(2-(2,6-dioxopiperidin-3-yl)-6-fluoro-1,3-dioxoisoindolin-5-yl)piperazin-1-yl)methyl)piperidin-1-yl)pyrimidine-5-carboxamide] gave a DC50 on androgen receptor (AR) of 0.6 nM.
`CC1(C)C(NC(=O)c2cnc(N3CCC(CN4CCN(c5cc6c(cc5F)C(=O)N(C5CCC(=O)NC5=O)C6=O)CC4)CC3)c(F)c2)C(C)(C)C1Oc1ccc(C#N)c2ncccc12` (stereo not drawn) [Compound 2-52, N-((1,3-trans)-3-((8-cyanoquinolin-5-yl)oxy)-2,2,4,4-tetramethylcyclobutyl)-6-(4-((4-(2-(2,6-dioxopiperidin-3-yl)-6-fluoro-1,3-dioxoisoindolin-5-yl)piperazin-1-yl)methyl)piperidin-1-yl)-5-fluoronicotinamide] gave a DC50 on androgen receptor (AR) of 1.3 nM.
With `CC1(C)[C@H](NC(=O)c2ccc(N3CCC(CN4CCN(c5cc6c(cc5F)C(=O)N([C@H]5CCC(=O)NC5=O)C6)CC4)CC3)c(F)c2)C(C)(C)[C@H]1Oc1ccc(C#N)c2ncccc12` [Compound 2-53, N-((1,3-trans)-3-((8-cyanoquinolin-5-yl)oxy)-2,2,4,4-tetramethylcyclobutyl)-4-(4-((4-(2-((S)-2,6-dioxopiperidin-3-yl)-6-fluoro-1-oxoisoindolin-5-yl)piperazin-1-yl)methyl)piperidin-1-yl)-3-fluorobenzamide], the GI50 in the experiment on VCAP cells stood at 11.9 nM. Besides, the DC50 at androgen receptor (AR) was 0.4 nM.
